Test results: patent publication US6593331B2, “Method for treatment of pain” (Laboratories UPSA, priority 2001, dated 2003)

What was measured:
mouse = mouse hot plate test (procedure of Eddy, et al.); format: in vivo; conditions: 6-hydroxybuspirone to acetaminophen weight ratios of 1:3, 1:10 and 1:30
albino rats = assay: rat hindpaw thermal escape paradigm (hindpaw withdrawal test for analgesia, acute pain); format: in vivo; conditions: for analgesic effect of co-administration with acetaminophen compared to either compound given alone: hydroxyazapirone 5 mg/kg + acetaminophen 300 mg/kg, ip; for hindpaw thermal escape response/latency compared to vehicle (saline+PETW): n=5-8 rats per group
From the text: To assess the thermally evoked paw-withdrawal response, a commercially available device was used. Specifics of device construction and operation have been published previously (Dirig D M, Salami A, Rathbun M L, Ozaki G T, Yaksh T L. Characterization of variables defining hindpaw withdrawal latency evoked by radiant thermal stimuli. J Neurosci Methods. Oct. 3, 1997; 76(2):183-91). This device is comprised of a glass surface on which the rats were placed individually in Plexiglas cubicles (9×22×25 cm). The surface is maintained at 30° C. by a feedback-controlled, under-glass, forced-air heating system. The thermal nociceptive stimulus originates from a projection bulb below the glass that can be manipulated in a two-dimensional axis on ball bearing slides. This apparatus allows the stimulus to be delivered separately to each hind paw with the aid of an angled mirror mounted on the stimulus source. A timer is actuated with the light source, and escape latency is defined as the time between stimulus onset and the display of a brisk paw withdrawal (detected by photodiode motion sensors that stops the timer and terminates the stimulus; cut-off time for a non-response is 20 sec which triggers automatic termination of the stimulus). In the present study, animals are placed in test boxes for 30 min acclimation and then baseline escape latency is assessed separately for each hindpaw (left and right) at −15 min. All drugs are delivered at 0 min by the intraperitoneal (i.p.) route in a volume of 3 ml/kg. The vehicle for 6-hydroxybuspirone was 0.9% sodium chloride (Saline). For 3-hydroxygepirone the vehicle was deionized H2O plus a few drops of hydrochloric acid. For acetaminophen (Sigma, A7085) the vehicle was 40% polyethylene glycol 400 (PEG-400), 10% EtOH, 15% Tween 80, and 35% deionized H2O (PETW). Acetaminophen was disolved sequentially in two parts: 1) first into a solution of 80% PEG 400+20% EtOH, and 2) then slowly added to it was an equal volume of 30% Tween 80+70% deionized H2O (sonicated as needed). Each animal received two injections at time zero. Specifically, animals were tested in one of the following 6 treatment conditions (abbreviations used in figures are shown under “Key” below):
Following drug administration, thermal escape latencies are measured at 15, 30, 60, 90 and 120 min (mean of both paws is used for statistical analysis).

[1] = hydroxyazapirone alone, 5 mg/kg ip
[2] = acetaminophen alone, 300 mg/kg ip

O=C1CC2(CCCC2)C(O)C(=O)N1CCCCN1CCN(c2ncccn2)CC1 (centres unmarked) [6-hydroxybuspirone, 6-Hydroxy-8-[4-[4-(2-pyrimidinyl)-piperazinyl]-butyl]-8-azaspiro[4.5]-7,9-dione]
potentiation of acetaminophen in hot plate test (mouse): potentiation of acetaminophen | analgesic effect of co-administration with acetaminophen compared to either compound given alone (albino rats): analgesic enhancing effect | hindpaw thermal escape response/latency compared to vehicle (saline+PETW) (albino rats; [1]): elevated significantly above vehicle

CC(=O)Nc1ccc(O)cc1 [acetaminophen, reference compound]
time of peak analgesic effect post injection (albino rats; [2]): 120 min | hindpaw thermal escape response/latency compared to vehicle (saline+PETW) (albino rats; [2]): elevated significantly above vehicle

CC1(C)CC(=O)N(CCCCN2CCN(c3ncccn3)CC2)C(=O)C1O (centres unmarked) [3-hydroxygepirone, 4,4-Dimethyl-3-hydroxy-1-[4-[4-(2-pyrimidinyl)-1-piperazinyl]butyl]-2,6-piperidinedione]
time of peak analgesic effect post injection (albino rats; 3-hydroxygepirone alone, 5 mg/kg ip): 120 min | analgesic effect of co-administration with acetaminophen compared to either compound given alone (albino rats): analgesic enhancing effect | hindpaw thermal escape response/latency compared to vehicle (saline+PETW) (albino rats; [1]): elevated significantly above vehicle
